Experimental findings from patent US12540148B2, “Lipophosphonoxins, their preparation and use” (USTAV ORGANICKE CHEMIE A BIOCHEMIE AV CR, V. V. I., priority 2019, dated 2026) are described below.

Common to all, as to assay type: cell-based
Data set [1] concerns Escherichia coli ATCC 25922 = CCM 3954. In words: MIC, microdilution method. Here is the method: (§1) Disposable microtiter plates are used for testing. Samples are dissolved in infusion medium from brain and heart (BHI, HiMedia Laboraties Pvt. Ltd., Czech Republic) and Mueller-Hinton broth (HiMedia Laboraties, see above) to a final concentration ranging from 200 μg/ml to 1.5625 μg/ml. Plates are inoculated with a standard amount of test bacteria—the density of the inoculum in the well corresponds to 10^5-6 CFU/ml (colony forming units/ml, i.e. the number of viable bacterial cells/ml). MIC values are read after 24/48 hours of incubation at 37° C. as the minimum inhibitory concentration of the test substance at which bacterial growth is inhibited. The minimum bactericidal concentration (MBC) is characterized as the minimum concentration of the sample required to achieve irreversible inhibition, i.e. to kill the bacteria after a defined incubation period. MBC is determined by the inoculation method. Using an applicator, 10 μl from the well of a microtiter plate with a defined concentration of the test substance is taken to inoculate the surface of blood agar (Trios, Czech Republic). MBC is determined as the lowest concentration that inhibits the visible growth of the bacterium used on agar.
(Broth dilution looks for growth in wells or tubes with falling amounts of substance.)

Data set [2] relates to Enterobacter kobei 3683. In words: MIC, microdilution method. Here is the method:
as §1

The test system of data set [3] is Enterococcus faecalis ATCC 29212 = CCM 4224. In words: MIC, microdilution method. Here is the method:
as §1

The subject of data set [4] is Staphylococcus aureus 4591. The data set is described as follows: MIC, microdilution method. How it is done: as §1
For data set [5], the system named is Staphylococcus aureus ATCC 29213 = CCM 4223. In words: MIC, microdilution method. Here is the method: as §1
For data set [6], the system named is Escherichia coli CE5556. The data set is described as follows: MIC, microdilution method. How it is done:
as §1

The test system of data set [7] is Pseudomonas aeruginosa ATCC 27853 = CCM 3955. In words: MIC, microdilution method. Here is the method:
as §1

In data set [8] the test system is Pseudomonas aeruginosa R. In words: MIC, microdilution method. How it is done:
as §1

The subject of data set [9] is Staphylococcus epidermidis CCM 7221. The data set is described as follows: MIC, microdilution method. Here is the method: as §1
For data set [10], the system named is Enterococcus faecium 419/ANA. In words: MIC, microdilution method. How it is done:
as §1

Data set [11] relates to Candida albicans ATCC 90028 = CCM 8161. In words: MIC, microdilution method.
Data set [12] has as its system erythrocytes. In words: Haemolytic activity of soluble samples. Here is the method: Blood from three donors is mixed and centrifuged (10 min, 1000 g, 4° C.). The erythrocytes obtained are washed three times with NaCl solution (150 mmol·l^−1) and then used for experiments. Sample stock solutions are prepared in DMSO so that the final concentration of DMSO in NaCl is 0.5% (v/v). NaCl solution with the appropriate volume of DMSO serves as the negative control. 1% Triton-X100 is the positive control. The erythrocytes obtained are diluted to 2% with NaCl solution and pipetted into Eppendorf tubes (250 μl) with constant stirring. Samples and positive and negative controls are added to the erythrocytes prepared in this way and incubated (3 hours, 37° C.). The tubes are stirred during the incubation. After centrifugation (5 min, 1000 g), haemolytic activity is monitored by haemoglobin determination. The HC50 value is calculated from the measured absorbance values. The test is performed in triplets in three independent replicates. Iron Fe^2+ in haemoglobin is oxidized with potassium ferricyanide to iron Fe^3+ in methaemoglobin, which produces stable cyanomethaemoglobin with potassium cyanide, the concentration of which is determined spectrophotometrically. After the incubation of the erythrocytes with the substances, the cells are centrifuged (5 min, 1000 g), then Drabkin's solution (200 μl) is added to the supernatant (40 μl) and after incubation (10 min), the absorbance at 540 nm is measured.

Counter-ions that a name gives are not always drawn. Like-named read-outs stand apart in the source and are kept apart here.

Broadly, the MIC is the lowest concentration that inhibits growth of the organism. For the compound `CC(C)COP(=O)(CCN(CCCN)CCCN)OCCCCCCCCCCCCCCOP(=O)(CCN(CCCN)CCCN)OCC(C)C` (stereo not drawn) [Example 51, Tetradecane-1,14-diyl diisobutyl bis((2-(bis(3-aminopropyl)amino)ethyl)-phosphonate) hexahydrochloride], the MIC was 16 µg/mL in data set [1] (Escherichia coli); 64 µg/mL in [2] (Enterobacter kobei, 3683); 4 µg/mL in data set [3] (Enterococcus faecalis); 2 µg/mL in [4] (Staphylococcus aureus, 4591); 2 µg/mL in data set [5] (Staphylococcus aureus); 32 µg/mL in data set [6] (Escherichia coli, CE5556). The MIC in data set [7] (Pseudomonas aeruginosa) came to 4 µg/mL; in [8] (Pseudomonas aeruginosa), 4 µg/mL; in [9] (Staphylococcus epidermidis, CCM7221) it was 0.5 µg/mL; in data set [10] (Enterococcus faecium, 419/ANA) it was 16 µg/mL; in data set [11] (Candida albicans) it was 32 µg/mL. Also, in data set [12], the “HC50 ± SD” value was above 100.
As to “Dibutyl dodecane-1,12-diyl bis((2-(bis(3-aminopropyl)amino)ethyl)-phosphonate) hexahydrochloride [Example 47]”, the MIC in data set [1] stood at 16 µg/mL; in data set [2], 128 µg/mL; in data set [3], 2 µg/mL; in data set [4] it was 1 µg/mL; in data set [5], 1 µg/mL; in [6], 32 µg/mL. The MIC in data set [7] came out at 4 µg/mL; in [8] (24/48 hours at 37° C.) it was 4 µg/mL; in [9], 0.5 µg/mL; in [10], 16 µg/mL; in data set [11] it was 16 µg/mL. Also, in data set [12], the “HC50 ± SD” value is recorded as above 100.
Consider “Dihexyl tetradecan-1,14-diyl bis((2-(bis(3-aminopropyl)amino)ethyl)-phosphonate) tetrahydrochloride [Example 54]”, for which the MIC in data set [1] was 4 µg/mL; in data set [2] it was above 128 µg/mL; in data set [3], 8 µg/mL; in data set [4], 1 µg/mL; in [5], 1 µg/mL; in data set [6] it was 16 µg/mL. Also, the MIC in data set [7] is 8 µg/mL; in [8] (24/48 hours at 37° C.), 8 µg/mL; in [9], 0.5 µg/mL; in data set [10], 64 µg/mL; in data set [11], 16 µg/mL. In [12], the “HC50 ± SD” value is above 100.
